Measured values as given in ChEMBL document CHEMBL4837260, “Structure-Guided Design of a Small-Molecule Activator of Sirtuin-3 that Modulates Autophagy in Triple Negative Breast Cancer” (J Med Chem, 2021).

Columns and labels:
[1] = biological target: T1, NAD-dependent protein deacetylase sirtuin-3, mitochondrial (Homo sapiens, UniProt Q9NTG7); assay: Activation of recombinant human SIRT3 assessed as lysyl deacetylase activity using (Gln-Pro-Lys-Lys(Ac)) peptide substrate by fluorescent assay
T1 sequence (Q9NTG7 whole entry): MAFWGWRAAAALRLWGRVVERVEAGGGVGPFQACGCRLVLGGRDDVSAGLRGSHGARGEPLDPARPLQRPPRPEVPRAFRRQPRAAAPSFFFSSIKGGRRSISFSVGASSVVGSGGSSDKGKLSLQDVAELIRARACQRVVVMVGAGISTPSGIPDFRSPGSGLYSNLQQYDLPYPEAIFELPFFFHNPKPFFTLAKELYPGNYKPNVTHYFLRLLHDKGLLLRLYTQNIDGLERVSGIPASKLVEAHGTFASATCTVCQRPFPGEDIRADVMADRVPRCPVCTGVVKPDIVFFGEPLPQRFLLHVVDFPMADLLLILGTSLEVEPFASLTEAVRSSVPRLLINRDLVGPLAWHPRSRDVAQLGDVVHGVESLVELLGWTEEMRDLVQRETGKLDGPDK

[2] = tested on: HL-60; assay: Antiproliferative activity against human HL-60 cells measured after 24 hrs by MTT assay; assay type: functional, cell-based; conditions: HL-60, 24 h
[3] = tested on: U-937; assay: Antiproliferative activity against human U-937 cells measured after 24 hrs by MTT assay; assay type: functional, cell-based; conditions: U-937, 24 h
[4] = tested on: MCF7; assay: Antiproliferative activity against human MCF7 cells measured after 24 hrs by MTT assay; assay type: functional, cell-based; conditions: MCF7, 24 h
[5] = tested on: MDA-MB-231; assay: Antiproliferative activity against human MDA-MB-231 cells measured after 24 hrs by MTT assay; assay type: functional, cell-based; conditions: MDA-MB-231, 24 h
[6] = Toxicity in BALB/c mouse xenografted with human MDA-MB-231 cells assessed as change in body weight at 25 mg/kg once daily for 1 week; assay type: organism-based; conditions: in vivo, 168 h, time 1 weeks
[7] = Toxicity in BALB/c mouse xenografted with human MDA-MB-231 cells assessed as change in body weight at 100 mg/kg once daily for 1 week; assay type: organism-based; conditions: in vivo, 168 h, time 1 weeks
[8] = Toxicity in BALB/c mouse xenografted with human MDA-MB-231 cells assessed as widening of the pulmonary septum and more cellular components at 100 mg/kg once daily for 1 week by H&E staining; assay type: organism-based; conditions: in vivo, 168 h, time 1 weeks

Row | SMILES | EC50 [1] [µM] | IC50 [2] [µM] | IC50 [3] [µM] | IC50 [4] [µM] | IC50 [5] [µM] | Activity [6] | Activity [7] | Activity [8]
1 | CCCCc1oc2ccccc2c1C(=O)c1ccc(OCCCC(=O)N[C@@H](C)c2ccccc2)cc1 | 7.01 | > 50 | 22.4 | > 50 | > 50 | – | – | –
2 | CCCCc1oc2ccccc2c1C(=O)c1ccc(OCC(=O)N2CCCCC2)cc1 | 2.68 | > 50 | 37.1 | > 50 | > 50 | – | – | –
3 | CCCCc1oc2ccccc2c1C(=O)c1cc(I)c(OCCN(CC)CC)c(I)c1 [AMIODARONE] | 3.25 | – | – | – | – | – | – | –
4 | CCCCc1oc2ccccc2c1C(=O)c1cc(I)c(OCCCC2CCCC2)c(I)c1 | – | > 50 | 42.2 | > 50 | > 50 | – | – | –
5 | CCCCc1oc2ccccc2c1C(=O)c1ccc(OCC(=O)NCc2ccccc2)cc1 | – | > 50 | 16.3 | 19.6 | > 50 | – | – | –
6 | CCCCc1oc2ccccc2c1C(=O)c1ccc(OCC(=O)N2CCOCC2)cc1 | 1.23 | > 50 | 45.4 | 34 | > 50 | – | – | –
7 | CCCCc1oc2ccccc2c1C(=O)c1ccc(OCC(N)=O)cc1 | – | > 50 | 42.2 | > 50 | > 50 | – | – | –
8 | CCCCc1oc2ccccc2c1C(=O)c1ccc(OCC(=O)Nc2cccc(OC)c2)cc1 | – | > 50 | 24.2 | 38.5 | > 50 | – | – | –
9 | CCCCc1oc2ccccc2c1C(=O)c1ccc(OCC(=O)N[C@@H](C)c2ccccc2)cc1 | – | > 50 | 33.8 | 17.9 | > 50 | – | – | –
10 | CCCCc1oc2ccccc2c1C(=O)c1ccc(OCCCC(=O)N(C)Cc2ccccc2)cc1 | – | > 50 | 10.5 | > 50 | > 50 | – | – | –
11 | C=CCc1ccc(O)c(-c2ccc(O)c(CC=C)c2)c1 [HONOKIOL] | 0.17 | – | – | – | 44.9 | – | – | –
12 | CCCCc1oc2ccccc2c1C(=O)c1ccc(OCCCC(=O)N[C@H](C)c2ccccc2)cc1 | – | > 50 | 30.7 | > 50 | > 50 | – | – | –
13 | CCCCc1oc2ccccc2c1C(=O)c1cc(I)c(OCCCN(C)Cc2ccccc2)c(I)c1 | – | 8.51 | 6.86 | 8.02 | 54 | – | – | –
14 | Oc1ccc(/C=C/c2cc(O)cc(O)c2)cc1 [RESVERATROL] | 55.2 | – | – | – | 98.8 | – | – | –
15 | CCCCc1oc2ccccc2c1C(=O)c1ccc(OCCCC(=O)NCc2ccccc2)cc1 | – | 28.9 | 15.8 | 49.7 | > 50 | – | – | –
16 | CCCCc1oc2ccccc2c1C(=O)c1cc(I)c(OCCCN2CCCC2)c(I)c1 | – | – | – | – | – | Non-Toxic | Non-Toxic | Non-Toxic

Now from value to compound, other results behind:

Row | EC50 [1] [µM] | IC50 [2] [µM] | IC50 [3] [µM] | IC50 [4] [µM] | IC50 [5] [µM] | SMILES | Activity [6] | Activity [7] | Activity [8]
17 | 10.7 | 4.4 | 2.3 | 8.05 | 11.6 | CCCCc1oc2ccccc2c1C(=O)c1cc(I)c(OCCCNCc2ccccc2)c(I)c1 | – | – | –
18 | 16.2 | 23.2 | 31.7 | > 50 | 20.4 | CCCCc1oc2ccccc2c1C(=O)c1cc(I)c(OCCN2CCCC2)c(I)c1 | – | – | –
19 | 16.7 | > 50 | 24.6 | > 50 | 38.1 | CCCCNC(=O)CCCOc1ccc(C(=O)c2c(CCCC)oc3ccccc23)cc1 | – | – | –
20 | – | 6.38 | 6.82 | 3.73 | 19.5 | CCCCc1oc2ccccc2c1C(=O)c1ccc(OCCCN2CCCC2)cc1 | – | – | –
21 | 3.02 | 34 | 21.4 | 41.2 | 31.6 | CCCCc1oc2ccccc2c1C(=O)c1ccc(OCCCC(=O)N2CCOCC2)cc1 | – | – | –
22 | 4.69 | 8.22 | 8.68 | 39.4 | 6.6 | CCCCc1oc2ccccc2c1C(=O)c1cc(I)c(OCCN(C)C)c(I)c1 | – | – | –
23 | 4.15 | 16 | 30 | 21.5 | 26.8 | CCCCc1oc2ccccc2c1C(=O)c1cc(I)c(OCCCN(CC)CC)c(I)c1 | – | – | –
24 | 1.65 | 11.5 | 18.2 | 37.9 | 15.7 | CCCCc1oc2ccccc2c1C(=O)c1cc(I)c(OCCCN2CCCCC2)c(I)c1 | – | – | –
25 | – | > 50 | 41.4 | 28.7 | 15.7 | CCCCc1oc2ccccc2c1C(=O)c1cc(I)c(OCCCN2CCN(Cc3ccccc3)CC2)c(I)c1 | – | – | –
26 | – | 2.77 | 3.47 | 5.26 | 19.4 | CCCCc1oc2ccccc2c1C(=O)c1ccc(OCCN(CC)CC)cc1 | – | – | –
27 | 3.46 | > 50 | > 50 | 5.37 | 8.76 | CCCCc1oc2ccccc2c1C(=O)c1cc(I)c(OCCCN2CCN(C)CC2)c(I)c1 | – | – | –
28 | 0.81 | 11.3 | 25.2 | 27.7 | 28.2 | CCCCc1oc2ccccc2c1C(=O)c1cc(Cl)c(OCCCN2CCCC2)c(Cl)c1 | – | – | –
29 | 17.4 | > 50 | 19.8 | 14.1 | 39 | CCCCc1oc2ccccc2c1C(=O)c1ccc(OCC(=O)N[C@H](C)c2ccccc2)cc1 | – | – | –
30 | 18.9 | > 50 | 22.8 | > 50 | 34.5 | CCCCNC(=O)COc1ccc(C(=O)c2c(CCCC)oc3ccccc23)cc1 | – | – | –
31 | 2.38 | 31.9 | 16.6 | 33 | 36 | CCCCc1oc2ccccc2c1C(=O)c1ccc(OCCCC(=O)N2CCCCC2)cc1 | – | – | –
